Assay results from patent US11001590B2, “Pyrazolopyrimidine derivatives” (BAYER ANIMAL HEALTH GMBH, priority 2016, dated 2021).

Experiments:
[1] = log P by HPLC on reversed phase columns (Method L0; [a] acidic, [b] neutral range)
Method: Calibration was done with straight-chain alkan-2-ones (with 3 to 16 carbon atoms) with known log P values (measurement of log P values using retention times with linear interpolation between successive alkanones). Lambda-max-values were determined using UV-spectra from 200 nm to 400 nm and the peak values of the chromatographic signals.

C. elegans Slo-1a = C. elegans Slo-1a (Caenorhabditis elegans, UniProt Q95V25); test: In vitro assay 1: C. elegans Slo-1a, action at a recombinant C. elegans CHO cell line (membrane potential measurement)
[2] = test system: Dirofilaria immitis microfilariae; test: In vitro assay 3: Dirofilaria immitis microfilariae (DIROIM L1), motility; settings: 72 h, reduction of motility vs negative control, 72 h incubation
[3] = test system: Dirofilaria immitis third-stage larvae; test: In vitro assay 4: Dirofilaria immitis (DIROIM L4), motility of larvae; settings: 72 h
[4] = test system: Litomosoides sigmodontis third-stage larvae; test: In vitro assay 7: Litomosoides sigmodontis L3 (LTMOSI), motility; settings: 72 h, reduction of motility vs negative control, 72 h incubation

Chain of C. elegans Slo-1a (Q95V25 whole entry): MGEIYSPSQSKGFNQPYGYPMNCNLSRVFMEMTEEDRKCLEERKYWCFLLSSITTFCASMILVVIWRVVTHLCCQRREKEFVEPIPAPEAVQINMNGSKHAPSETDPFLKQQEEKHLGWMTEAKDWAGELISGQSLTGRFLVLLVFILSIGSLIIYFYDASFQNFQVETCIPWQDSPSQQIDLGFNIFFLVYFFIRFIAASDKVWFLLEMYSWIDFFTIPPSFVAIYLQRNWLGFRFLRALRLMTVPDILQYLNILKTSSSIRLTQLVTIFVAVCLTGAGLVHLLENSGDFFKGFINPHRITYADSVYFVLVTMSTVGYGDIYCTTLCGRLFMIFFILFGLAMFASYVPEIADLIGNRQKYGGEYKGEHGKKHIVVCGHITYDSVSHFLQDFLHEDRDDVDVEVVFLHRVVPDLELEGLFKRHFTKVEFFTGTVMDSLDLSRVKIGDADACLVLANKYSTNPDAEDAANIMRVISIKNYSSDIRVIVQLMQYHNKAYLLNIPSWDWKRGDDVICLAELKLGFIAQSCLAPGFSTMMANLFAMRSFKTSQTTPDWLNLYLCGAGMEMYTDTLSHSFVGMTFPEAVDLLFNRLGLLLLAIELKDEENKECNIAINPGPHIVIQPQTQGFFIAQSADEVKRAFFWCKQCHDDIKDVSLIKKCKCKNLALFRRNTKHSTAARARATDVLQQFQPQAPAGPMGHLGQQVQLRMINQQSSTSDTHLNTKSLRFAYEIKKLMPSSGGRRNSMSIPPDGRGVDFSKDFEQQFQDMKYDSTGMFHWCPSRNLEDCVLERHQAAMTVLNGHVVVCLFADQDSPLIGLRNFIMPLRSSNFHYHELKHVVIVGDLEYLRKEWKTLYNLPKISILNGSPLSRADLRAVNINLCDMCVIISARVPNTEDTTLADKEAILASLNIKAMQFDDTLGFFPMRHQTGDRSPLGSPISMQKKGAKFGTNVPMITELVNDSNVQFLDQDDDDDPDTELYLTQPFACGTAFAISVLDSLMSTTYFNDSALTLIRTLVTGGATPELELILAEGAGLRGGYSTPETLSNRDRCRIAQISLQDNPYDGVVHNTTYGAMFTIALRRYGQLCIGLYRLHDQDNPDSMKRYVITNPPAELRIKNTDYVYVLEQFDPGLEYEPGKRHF

SMILES	chromatographic logP [1]	EC50 (C. elegans Slo-1a) [nM]	EC50 [2] [µg/mL]	EC50 [3] [µg/mL]	EC50 [4] [µg/mL]
Cc1nn2c(C(C)C)c(C(=O)N[C@H]3CCc4ccccc43)cnc2c1-c1cccc(C(F)(F)F)c1 [Example 4]	5.3	31.6	< 1	< 1	–
Cc1nn2c(C(C)C)c(C(=O)N[C@H]3CCCc4ccccc43)cnc2c1-c1cccc(Cl)c1 [Example 45]	5.51	50.1	< 0.1	< 1	< 0.1
CC(C)c1c(C(=O)N[C@H]2CCc3ccccc32)cnc2c(-c3ccccc3Cl)c(Cl)nn12 [Example 79]	4.79	20	< 0.1	< 0.1	< 0.1
Cc1nn2c(C(C)C)c(C(=O)N[C@H]3CCOc4ccccc43)cnc2c1-c1ccccc1F [Example 92]	4.18	6.31	< 0.1	< 0.1	< 0.1
Cc1nn2c(C(C)C)c(C(=O)N[C@H]3CCc4ccccc43)cnc2c1-c1ccccc1F [Example 95]	4.41	6.31	< 0.1	< 0.1	< 0.1
Cc1nn2c(C(C)C)c(C(=O)N[C@H]3CCc4ccccc43)cnc2c1-c1cccc(F)c1Cl [Example 165]	4.74	2	< 0.1	< 0.1	–
Cc1nn2c(C(C)C)c(C(=O)N[C@H]3CCCc4ccccc43)cnc2c1-c1cc(Cl)ccc1Cl [Example 172]	5.64	10	< 0.1	< 0.1	–
Cc1nn2c(C(C)C)c(C(=O)N[C@H]3CCc4ccccc43)cnc2c1-c1cccc(Cl)c1 [Example 287]	5.19	15.8	< 1	–	< 0.1
COc1cccc(-c2c(C)nn3c(C(C)C)c(C(=O)N[C@H]4CCc5ccccc54)cnc23)c1 [Example 289]	4.51	15.8	< 1	–	< 0.1
Cc1nn2c(C(C)C)c(C(=O)N[C@H]3CCc4ccccc43)cnc2c1-c1cccc(F)c1 [Example 290, (S)—N-(2,3-Dihydro-1H-inden-1-yl)-3-(3-fluorophenyl)-7-isopropyl-2-methylpyrazolo[1,5-a]pyrimidine-6-carboxamide]	4.73	15.8	< 1	–	< 1
COCc1cccc(-c2c(C)nn3c(C(C)C)c(C(=O)N[C@H]4CCCc5ccccc54)cnc23)c1 [Example 344]	4.74	7.94	< 1	< 1	–
Cc1nn2c(C3CC3)c(C(=O)N[C@H]3CCc4ccccc43)cnc2c1-c1cccc(N(C)C)c1 [Example 348]	2.98	3.98	< 1	< 1	–
COCc1cccc(-c2c(C)nn3c(C4CC4)c(C(=O)N[C@H]4CCc5ccccc54)cnc23)c1 [Example 350]	3.65	10	< 0.1	< 1	–
Cc1nn2c(C3CC3)c(C(=O)N[C@H]3CCc4ccccc43)cnc2c1-c1ccc(F)c(F)c1 [Example 358]	4.1	12.6	< 1	< 1	–
Cc1nn2c(C(C)C)c(C(=O)N[C@H]3CCc4ccccc43)cnc2c1-c1cccc(N2CC(F)(F)C2)c1 [Example 364]	4.89	10	< 1	< 1	–
CC(C)c1c(C(=O)N[C@H]2CCc3ccccc32)cnc2c(-c3c(F)cccc3F)c(C(F)F)nn12 [Example 434]	4.23	7.94	< 0.1	< 0.1	–
CC(C)c1c(C(=O)N[C@H]2CCc3ccccc32)cnc2c(-c3ccccc3Cl)c(C(F)F)nn12 [Example 435]	4.43	25.1	< 0.1	–	–
COc1cccc(-c2c(C)nn3c(C4CC4)c(C(=O)N[C@H]4CCCc5ccccc54)cnc23)c1 [Example 439]	4.03	6.31	< 0.1	–	–
Cc1nn2c(C3CC3)c(C(=O)N[C@H]3CCc4ccccc43)cnc2c1-c1cccc(N2CC(F)(F)C2)c1 [Example 441]	4.16	10	< 1	–	–
Cc1nn2c(C(C)C)c(C(=O)N[C@H]3CCc4ccccc43)cnc2c1-c1cccc(S(=O)(=O)C2CC2)c1 [Example 443]	3.99	50.1	< 10	–	–
Cc1nn2c(C(C)C)c(C(=O)N[C@H]3CCOc4ccccc43)cnc2c1-c1cccc(N2CC(C#N)C2)c1 [Example 444]	3.91	15.8	< 10	–	–
Cc1nn2c(C3CC3)c(C(=O)N[C@H]3CCOc4ccccc43)cnc2c1-c1c(F)cccc1F [Example 445]	3.43	2	< 0.1	< 0.1	–
Cc1nn2c(C3CC3)c(C(=O)N[C@H]3CCc4ccccc43)cnc2c1-c1cnn(CC2CC2)c1 [Example 446]	3.15	12.6	< 10	–	–

SMILES	chromatographic logP [1]	EC50 (C. elegans Slo-1a) [nM]	EC50 [2] [µg/mL]	EC50 [3] [µg/mL]	EC50 [4] [µg/mL]
Cc1nn2c(C(C)C)c(C(=O)N[C@H]3CCc4ccccc43)cnc2c1-n1cc(Cl)cn1 [Example 447]	4.13	398	< 10	–	–
Cc1nn2c(C3CC3)c(C(=O)N[C@H]3CCOc4ccccc43)cnc2c1-c1cc(F)ccc1F [Example 448]	3.61	3.16	< 0.1	< 0.1	–
Cc1nn2c(C3CC3)c(C(=O)N[C@H]3CCOc4ccccc43)cnc2c1-c1cccc(C(F)(F)F)c1 [Example 449]	4.31	6.31	< 0.1	–	–
Cc1nn2c(C3CC3)c(C(=O)N[C@H]3CCOc4ccccc43)cnc2c1-c1ccccc1F [Example 450]	3.45	3.16	< 0.1	< 0.1	–
COc1cccc(-c2c(C)nn3c(C4CC4)c(C(=O)N[C@H]4CCOc5ccccc54)cnc23)c1 [Example 454]	3.5	3.98	< 0.1	–	–
Cc1nn2c(C3CC3)c(C(=O)N[C@H]3CCOc4ccccc43)cnc2c1-c1cccc(Cl)c1 [Example 455]	4.13	6.31	< 0.1	–	–
Cc1nn2c(C3CC3)c(C(=O)N[C@H]3CCOc4ccccc43)cnc2c1-c1cccc(F)c1 [Example 456]	3.71	6.31	< 0.1	–	–
Cc1nn2c(C3CC3)c(C(=O)N[C@H]3CCc4ccccc43)cnc2c1-c1cccc(N2CC(C#N)C2)c1 [Example 460]	3.44	39.8	< 10	–	–
Cc1nn2c(C3CC3)c(C(=O)N[C@H]3CCOc4ccccc43)cnc2c1-c1cccc(OC(F)(F)F)c1 [Example 462]	4.47	6.31	< 0.1	–	–
Cc1nn2c(C3CC3)c(C(=O)N[C@H]3CCOc4ccccc43)cnc2c1-c1ccc(F)cc1 [Example 463]	3.62	7.94	< 0.1	< 0.1	–
Cc1nn2c(C3CC3)c(C(=O)N[C@H]3CCOc4ccccc43)cnc2c1-c1cccc(N2CC(F)(F)C2)c1 [Example 464]	3.92	3.16	< 0.1	–	–
Cc1nn2c(C3CC3)c(C(=O)N[C@H]3CCc4ccccc43)cnc2c1-c1cccc(N2CC(F)C2)c1 [Example 466]	3.85	10	< 10	–	–
Cc1nn2c(C3CC3)c(C(=O)N[C@H]3CCOc4ccccc43)cnc2c1-c1cc(Cl)cc(Cl)c1 [Example 469]	4.96	15.8	< 0.1	–	–
Cc1nn2c(C3CC3)c(C(=O)N[C@H]3CCOc4ccccc43)cnc2c1-c1ccc(F)c(F)c1 [Example 471]	3.86	3.98	< 0.1	–	–
Cc1nn2c(C3CC3)c(C(=O)N[C@H]3CCOc4ccccc43)cnc2c1-c1cc(Cl)c(F)c(Cl)c1 [Example 476]	4.95	6.31	< 1	–	–
Cc1nn2c(N(C)C)c(C(=O)N[C@H]3CCOc4ccccc43)cnc2c1-c1cc(Cl)cc(Cl)c1 [Example 520]	4.92	7.94	< 0.1	–	–
Cc1nn2c(N3CCOCC3)c(C(=O)N[C@H]3CCOc4ccccc43)cnc2c1-c1cccc(Cl)c1F [Example 524]	4.69	1.26	< 0.1	< 0.1	–
Cc1nn2c(C3CC3)c(C(=O)N[C@H]3CCOc4ccccc43)cnc2c1-c1ccc(Cl)nc1 [Example 525]	2.96	79.4	< 10	–	–
Cc1nn2c(C3CC3)c(C(=O)N[C@H]3CCOc4ccccc43)cnc2c1-c1ccnc(N2CCOCC2)c1F [Example 527]	2.96	31.6	< 10	–	–
CC(=O)Nc1cc(-c2c(C)nn3c(C4CC4)c(C(=O)N[C@H]4CCOc5ccccc54)cnc23)ccn1 [Example 528]	1.69	1260	< 10	–	–
Cc1ccccc1-c1c(C)nn2c(N3CCOCC3)c(C(=O)N[C@H]3CCOc4ccccc43)cnc12 [Example 536]	4.18	5.01	< 0.1	–	–
Cc1nn2c(C3CC3)c(C(=O)N[C@H]3CCOc4ccccc43)cnc2c1-c1cc(F)cc(F)c1 [Example 537]	3.99	5.01	< 0.1	–	–
